Experiments:
Format in all cases: cell-based, human
[1] = test system: IVS2-705U EGFP cells; assay: EGFP fluorescence screen by fluorescence microscopy, IVS2-705U EGFP HeLa cells; design: key: Compounds causing moderate to high levels of fluorescence with no autofluorescence of the compound itself are indicated by a (+) sign; A (+/−) indicates compounds causing faint levels of fluorescence or compounds that have some autofluorescence in addition to causing the cells to fluoresce; A (−) sign indicates that the compounds did not cause detectable levels of fluorescence; settings: 50 μM compound, 24 hours, detected by eye
Method: The screen was carried out using HeLa cell lines stably transfected with an EGFP (enhanced green fluorescent protein) construct. This construct contains the EGFP cDNA disrupted by intron 2 of the β-globin gene, containing thalassemic mutations (FIG. 1), and was under the control of the CMV promoter. Two different cell lines were generated with this construct, one with a mutation at position 654 (IVS2-654 EGFP) and another with a mutation at position 705 (IVS2-705U EGFP).
For both constructs, disruption of EGFP with mutated intron 2 results in a lack of production of a functional EGFP protein. When correct splicing is restored to a cell, intron 2 is excised and functional EGFP protein is generated (Sazani (2001) Nucl. Acids Res. 29:3965-3974).
Cells were plated in black well, clear bottom 96-well plates at 13×10^4 cells/ml, 100 μl per well. The rows on the ends of the plate (rows 1 and 12) were control rows and the remaining rows were treated with compounds. In the control rows, positive control EGFP cells were alternated with untreated cells serving as negative controls. […]
Twenty-four hours after treatment, the medium was removed and the cells were washed 2 times in 150 μl 1× PBS. […] Cells were then examined on an Olympus inverted fluorescence microscope at 10× or 20× using a FITC filter. Fluorescence was detected by eye. Attempts to utilize a fluorescence plate reader failed as the plate reader was not sensitive enough to detect the expected low levels of EGFP fluorescence.
The criteria used to designate a compound as a positive were as follows. […] Additionally, the fluorescence had to be mostly uniform throughout all of the cells. This criterion was complicated by the fact that many of the compounds had varying levels of autofluorescence, and therefore were difficult to distinguish from those that caused cellular fluorescence. […]
The IVS2-705U and IVS2-654 EGFP cell lines were treated a second time with the 132 positive compounds and analyzed on a fluorescence microscope. […]

[2] = test system: IVS2-705 β-globin cells; assay: RT-PCR analysis of splicing correction, IVS2-705 β-globin cells; design: key: Compounds causing correction by RT-PCR. are indicated by a (+) sign; settings: 50 μM compound
Excerpt: β-globin cell lines were obtained by stable transfection of HeLa cells with the human β-globin gene carrying thalassemic mutations at either IVS2-654 or IVS2-705. The cloned genes were under the control of the immediate early cytomegalovirus promoter (Sierakowska, et al., (1996) Proc. Natl. Acad. Sci. USA 93:12840-12844). The IVS2-654 EGFP cell line is well known in the art (Sazani (2001) Nucl. Acids Res. 29:3965-3974). The IVS2-705U EGFP cell line was made in the same manner using a different plasmid. HeLa cells were grown in SMEM with 5% horse serum, 5% fetal calf serum, 1% L-glutamine and 1% gentamicin/kanamycin.
(§1) A RT-PCR-based assay was performed to determine if the fluorescence observed on the EGFP cells was a result of the compounds shifting splicing. […] Therefore, primers located in exons 2 and 3 are used to PCR amplify the products, and the size difference is detected by running the products on an acrylamide gel.
After the IVS2-705U and IVS2-654 EGFP cells were re-treated with positive compounds and examined on the microscope, total RNA was isolated using TRI-REAGENT® (Molecular Research Center, Inc., Cincinnati, Ohio). A total of 200 ng of RNA was analyzed by reverse transcription polymerase chain reaction (RT-PCR) using rTth DNA polymerase (Perkin-Elmer, Boston, Mass.) according to manufacturer's instructions. […]

[3] = test system: IVS2-705U EGFP cells; assay: RT-PCR analysis of splicing correction, IVS2-705U EGFP cells; design: key: Compounds causing correction by RT-PCR. are indicated by a (+) sign; settings: 50 μM compound
Method: as §1
After the IVS2-705U and IVS2-654 EGFP cells were re-treated with positive compounds and examined on the microscope, total RNA was isolated using TRI-REAGENT® (Molecular Research Center, Inc., Cincinnati, Ohio). A total of 200 ng of RNA was analyzed by reverse transcription polymerase chain reaction (RT-PCR) using rTth DNA polymerase (Perkin-Elmer, Boston, Mass.) according to manufacturer's instructions. The reverse transcription step was carried out at 70° C. for 15 minutes. The PCR step included 1 cycle, 95° C., 3 minutes: 18 cycles. 95° C., 1 minute, 65° C., 1 minute. For β-globin mRNA amplification, the reverse primer spanned positions 6-28 of exon 3 and the forward primer spanned positions 21-43 of exon 2 of the human β-globin gene. […]
FIG. 3 provides an example of a polyacrylamide gel with RT-PCR products from EGFP cells treated with several positive compounds. The amount of correction was determined by comparing the ratio of the aberrant band and the correct band.

SMILES | 705U EGFP Fluorescence [1] | 705 β-globin RT-PCR [2] | 705U EGFP RT-PCR [3]
CCOc1cccc(CN2CCN(c3ccc(F)cc3)CC2)c1O [AA11] | − | + | 
COc1ccc(CCN(C)Cc2cc(OC)c(OC)cc2Br)cc1OC [Compound A5] | +/− |  | 
CC(C)(C)c1ccc(C(=O)NNC(=O)Cc2ccc(-c3ccccc3)cc2)cc1 [Compound E11] | − | + | +
